According to patent publication US5235061A, “Fungicidal (1H-1,2,4-triazolyl)disilaalkanes” (priority 1991, dated 1993):

Key:
Test in all cases: In vitro percent disease control (radii of spore growth on agar)
Type in all cases: cell-based
Alternaria mali = details: Alternaria mali, read-out: % controlled, Al.
Protocol: (§1) The compounds of this invention were dissolved respectively in acetone in an amount equal to 10% of the final volume and then in purified water at the concentration of 100 ppm and 50 ppm.
(§2) Each of the solution was mixed with potato-sucrose-agar medium in a 6" petri dish and one of the fungi was spotted at the center of the dish. The dish was incubated in growth room for several days. The percent disease control was derived from the radii of spore growth. The screening tests in vitro condition are well-known to those skilled in the art.
(§3) The following fungi were used for the screening.

Rhizopus sp. = details: Rhizopus, read-out: % controlled, Rhi. sp.
Protocol: as §1, §2, §3

Glomerella cingulata = details: Colletotrichum gloeosporioides, read-out: % controlled, Glo.
Protocol: as §1, §2, §3
5) Glo.; Glomerella cingulata

Rhizoctonia solani = details: Rhizoctonia solani, read-out: % controlled, Rhy. so.
Protocol: as §1, §2, §3
7) Rhi.so.; Rhizoctonia solani

Botry tris cinerea = details: read-out: % controlled, Bo ci.
Protocol: as §1, §2, §3
10) Bo.ci.; Botry tris cinerea

Pyricalaria oryzae = details: for inhibition of growth at 50 ppm: read-out: % controlled, Py. or., 50 ppm; for inhibition of growth at 100 ppm: read-out: % controlled, Py. or., 100 ppm
Protocol: as §1, §2, §3
6) Py.or.; Pyricalaria oryzae

Phytophthora capsisi = details: Phytophthora, read-out: % controlled, Phy ca.
Protocol: as §1, §2, §3
2) Phy. ca.; Phytophthora capsisi

Physalospora baccae = details: read-out: % controlled, Phy ba.
Protocol: as §1, §2, §3
3) Phy. ba.; Physalospora baccae

Fusarium moniliforme = test system: Fusarium moniliforme
Protocol: as §1, §2, §3
8) Fu.mo.; Fusarium moniliforme

[1] = test system: Botryosphaeria dothidea Macrophoma sp.; details: Botryosphaeria dothidea, read-out: % controlled, Bo.do (Ma.)
Protocol: as §1, §2, §3
4) Bo.do(Ma); Botryosphaeria dothidea Macrophoma sp.

SMILES | inhibition of growth at 50 ppm (Alternaria mali) | inhibition of growth at 100 ppm (Alternaria mali) | inhibition of growth at 50 ppm (Rhizopus sp.) | inhibition of growth at 100 ppm (Rhizopus sp.) | inhibition of growth at 50 ppm (Glomerella cingulata) | inhibition of growth at 100 ppm (Glomerella cingulata) | inhibition of growth at 50 ppm (Rhizoctonia solani) | inhibition of growth at 100 ppm (Rhizoctonia solani) | inhibition of growth at 50 ppm (Botry tris cinerea) | inhibition of growth at 100 ppm (Botry tris cinerea) | inhibition of growth at 50 ppm (Pyricalaria oryzae) | inhibition of growth at 100 ppm (Pyricalaria oryzae) | inhibition of growth at 50 ppm (Phytophthora capsisi) | inhibition of growth at 100 ppm (Phytophthora capsisi) | inhibition of growth at 50 ppm (Physalospora baccae) | inhibition of growth at 100 ppm (Physalospora baccae) | % controlled, Fu. mo. (Fusarium moniliforme; 50 ppm) | % controlled, Fu. mo. (Fusarium moniliforme; 100 ppm) | inhibition of growth at 50 ppm [1] | inhibition of growth at 100 ppm [1]
CCOc1ccc([Si](C)(C)C[Si](Cn2cncn2)(c2ccc(F)cc2)c2ccc(Cl)cc2)cc1 (centres unmarked) [2-(4-chlorophenyl)-4-(4-ethoxyphenyl)-2-(4-fluorophenyl)-4-methyl-2,4-disila-1-(1H-1,2,4-triazol-1-yl)pentane] | 75% | 79% | 50% | 50% | 87% | 87% | 96% | 96% | 90% | 90% | 100% | 100% | 23% | 25% | 69% | 69% | 46% | 46% | 74% | 79%
C[Si](C)(C[Si](C)(Cn1cncn1)c1ccc(Cl)cc1)c1ccc(F)cc1 (centres unmarked) [2-(4-chlorophenyl)-4-(4-fluorophenyl)-2,4-dimethyl-2,4-disila-1-(1H-1,2,4-triazol-1-yl)pentane] | 38% | 38% | 18% | 20% | 67% | 73% | 31% | 50% | 13% | 18% | 46% | 48% | 0% | 0% | 20% | 20% | 34% | 58% | 43% | 43%
CCOc1ccc([Si](C)(Cn2cncn2)C[Si](C)(C)c2ccc(F)cc2)cc1 (centres unmarked) [2-(4-ethoxyphenyl)-4-(4-fluorophenyl)-2,4-dimethyl-2,4-disila-1-(1H-1,2,4-triazol-1-yl)pentane] | 38% | 44% | 29% | 32% | 67% | 69% | 74% | 89% | 0% | 0% | 64% | 64% | 9% | 9% | 28% | 28% | 41% | 45% | 40% | 46%
C=CC[Si](C[Si](C)(Cn1cncn1)c1ccc(F)cc1)(c1ccc(F)cc1)c1ccc(F)cc1 (centres unmarked) [4,4,6-tris(4-fluorophenyl)-6-methyl-4,6-disila-7-(1H-1,2,4-triazole-1-yl)-1-heptane] | 63% | 72% | 19% | 43% | 71% | 77% | 78% | 78% | 69% | 66% | 100% | 100% | 50% | 60% | 53% | 74% | 58% | 63% | 74% | 78%
C[Si](C)(C[Si](Cn1cncn1)(c1ccc(F)cc1)c1ccc(F)cc1)c1ccc(Cl)cc1 [4-(4-chlorophenyl)-2,2-bis(4-fluorophenyl)-4-methyl-2,4-disila-1-(1H-1,2,4-triazol-1-yl)pentane] | 32% | 34% | 78% | 89% | 87% | 90% | 100% | 100% | 76% | 80% | 76% | 87% | 10% | 12% | 80% | 100% | 45% | 56% | 76% | 87%
C[Si](C)(C[Si](C)(Cn1cncn1)c1ccc(F)cc1)c1ccc(Cl)cc1 (centres unmarked) [4-(4-chlorophenyl)-2-(4-fluorophenyl)-2,4-dimethyl-2,4-disila-1-(1H-1,2,4-triazol-1-yl)pentane] | 84% | 84% | 59% | 65% | 0% | 0% | 93% | 100% | 100% | 100% | 100% | 100% | 43% | 54% | 78% | 82% | 67% | 69% | 74% | 86%
COc1ccc([Si](C)(Cn2cncn2)C[Si](C)(C)c2ccc(Cl)cc2)cc1 (centres unmarked) [4-(4-chlorophenyl)-2-(4-methoxyphenyl)-2,4-dimethyl-2,4-disila-1-(1H-1,2,4-triazol-1-yl)pentane] | 30% | 62% | 32% | 48% | 56% | 82% | 100% | 100% | 40% | 80% | 100% | 100% | 43% | 59% | 50% | 60% | 28% | 41% | 34% | 66%
